Here are results for 81 molecules from the METLIN SMRT retention time set (Domingo-Almenara et al. 2019).

The structures appear in SMILES notation.

The nature of this data set: gradient 5% acetonitrile 3 min, to 50% in 2 min, to 85% in 15 min, held 3 min, 100 µL/min. The note with it: column: Zorbax Extend-C18 2.1 x 50 mm; eluents: water / acetonitrile, 0.1% formic acid. In outline: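 The mobile phases were water and acetonitrile, each with 0.1% formic acid, pumped at 100 μL/min through a Zorbax Extend-C18 column (2.1 × 50 mm, 1.8 μm). Pure standards were injected as mixtures of ~100 molecules and detected by a quadrupole time-of-flight mass spectrometer in positive and negative ionization mode. Retention time came from computationally picked adduct peaks, each inspected by hand.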
`Cc1c(-c2ccnc(N3CCN(C)CC3)n2)cnc2nc(-c3ccccc3)nn12` registered an RP-LC retention time of 640 s. The result for `COc1cc(OC)cc(N2C(=O)C3N=NN(Cc4nc(-c5ccccc5Cl)no4)C3C2=O)c1` (stereo unspecified) reads 967 s. The result for `CCc1cccc(NC(=O)Cn2nc(N3CCC(C)CC3)c3ccccc3c2=O)c1` reads 1220 s; that for `COC(=O)c1ccc(C(=O)N(Cc2ccsc2)Cc2ccco2)cc1`, 832 s; that for `Cc1noc(C)c1-c1ccc(S(=O)(=O)NCc2ccc(F)cc2)cc1`, 942 s.

The molecule `COc1ccc(C2c3c(oc4ccc(Br)cc4c3=O)C(=O)N2C)cc1OC` (stereo unspecified) had an RP-LC retention time of 774 s. On to `Cc1ccc(-c2cn3ccn(-c4ccc(F)c(Cl)c4)c(=O)c3n2)cc1`, for which the RP-LC retention time was found to be 927 s. Consider `Cc1nc(C)c(C(=O)Nc2nc(-c3ccc(C)c(C)c3)cs2)s1`, for which the RP-LC retention time came out at 1060 s. Molecule `O=C(CCn1cnc2cc(-c3noc(-c4cccs4)n3)ccc21)N1CCOCC1` showed an RP-LC retention time of 672 s. The result for `CCCN1C(=O)C2(c3cc(Br)ccc31)c1[nH]c3ccccc3c1CCN2C(C)=O` (stereo unspecified) reads 924 s; that for `O=C(COc1ccc(F)cc1)Nc1ccccc1NC(=O)c1ccccc1Cl`, 853 s; that for `O=C(NC1CCCC1)c1nc(-c2cn(-c3ccc(Cl)cc3)nn2)no1`, 837 s. As for `Cn1nnnc1SCC(=O)N1CCC(C(=O)NCC(F)(F)F)CC1`, the figure is 600 s; as for `NC(=O)Cc1ccc2c(c1)[nH]c1ccccc12`, 756 s; as for `Cc1sc(-n2c(C)c3c(C)nnc(C)c3c2C)nc1-c1ccc(Br)cc1`, 782 s. The result for `Cc1noc(C)c1CCNC(=O)CCCn1c(=O)c2cccn2c2ccc(Br)cc21` reads 803 s; that for `O=C(Cc1ccc(Cl)cc1)Nc1nnc(C2CC(=O)N(c3ccc(F)cc3)C2)o1` (stereo unspecified), 772 s; that for `CCC(C)NS(=O)(=O)c1ccc(-c2c(C)noc2C)cc1` (stereo unspecified), 936 s. In the case of `Cc1ccsc1C(=O)NC1(c2nc(-c3cccnc3)no2)CCCCC1`, the RP-LC retention time worked out at 937 s. The result for `O=C(C1CCCO1)N1CCc2ccc(NS(=O)(=O)c3ccc(F)c(Cl)c3)cc21` (stereo unspecified) reads 813 s; that for `CCn1cc(C)c(C(=O)O)c1CC(=O)N1CCCCCC1`, 720 s. In the case of `COc1ccc(C(=O)NCc2ccc(OCCN(C)C)cc2)cc1OC`, the RP-LC retention time stood at 638 s. The result for `CN(CC1COCCO1)c1ccc(C(=O)O)cc1NC(=O)c1ccc(Cl)cc1` (stereo unspecified) reads 812 s. The result for `O=C1/C(=C/c2ccc([N+](=O)[O-])cc2)CCc2ccccc21` reads 1160 s; that for `CC(C)NC(=O)N1CCC(c2noc(-c3ccccc3)n2)C1` (stereo unspecified), 775 s; that for `Cc1cc(C)cc(-c2nnc(Cc3nc(-c4ccc(Cl)cc4)no3)o2)c1`, 1230 s. In the case of `CCOC(=O)c1nc(Nc2ccc(OC(C)C)cc2)c2ccccc2n1`, the RP-LC retention time worked out at 888 s. Molecule `Cc1cccnc1NC(=O)C1CCCN(c2ccc3cc(S(=O)(=O)N4CCCC4)ccc3n2)C1` (stereo unspecified) gave an RP-LC retention time of 624 s. The result for `O=C(Nc1ccc2c(c1)OCO2)c1cn(-c2ccc(F)cc2)nn1` reads 885 s; that for `CCOc1ccccc1NC(=O)CSc1nnc2c3cc(-c4ccc(C)c(C)c4)nn3ccn12`, 1090 s; that for `N#Cc1ccc(C(=O)NC2CCN(c3ccccc3)C2=O)cc1` (stereo unspecified), 742 s. For the molecule `CC(C)CNC(=O)CCc1ccc2nc(-c3ccccc3)[nH]c2c1`, the RP-LC retention time came to 618 s. As for `COc1ccc(NC(=O)c2[nH]c3cc(C)sc3c2CN2CCOCC2)cc1`, the figure is 655 s; as for `CCN(CC)C(=O)c1ccc2c(c1)N(CC(=O)N1CCCCC1)C(=O)CO2`, 691 s. As for `O=S(=O)(c1cc(F)ccc1F)N1CCc2nc(-c3ccc(F)cc3)ncc2C1`, the figure is 1100 s; as for `Cc1ccccc1N1CCN(C(=O)c2csc(C(=O)NC3CC3)n2)CC1`, 884 s.

`O=C(Nc1ccc(N2CCN(Cc3ccc(F)cc3)C2=O)nc1)C1CCC1` came in with an RP-LC retention time of 750 s.

On to `CCn1c(N2CCCC(C(=O)NCc3ccc(OC)cc3OC)C2)cc(=O)n(C)c1=O` (stereo unspecified), for which the RP-LC retention time is 752 s. The result for `NC(=O)C1CCN(C2CC(=O)N(c3ccc4c(c3)OCCO4)C2=O)CC1` (stereo unspecified) reads 568 s; that for `Cc1cc(C)cc(NC(=O)COc2cc(C)nc(N3CCN(c4ccccc4)CC3)n2)c1`, 915 s. The molecule `CO[C@H]1C(=O)N(C2CCN(S(=O)(=O)c3cccnc3)CC2)[C@H]1c1ccncc1` came in with an RP-LC retention time of 579 s.

The molecule `CC(C)c1ccc(NC(=O)Cn2ncc3c(c2=O)N(C2CC2)C(=O)CS3)cc1` had an RP-LC retention time of 784 s. Turning to `COCc1nc(C2CCN(C(=O)NCC(C)C)C2)no1` (stereo unspecified), the RP-LC retention time worked out at 636 s. As for `O=C(NCC1CCN(C(=O)c2ccccc2F)CC1)c1ccccn1`, the figure is 667 s. The result for `Cc1ccn2cc(C(=O)N3CCN(C4CCCCC4)CC3)nc2c1` reads 566 s; that for `Cc1ccc(-c2nc(NC(=O)C(C)C)sc2C)cc1`, 1010 s. The result for `COCc1c(C(=O)N2CCC3(CCC3O)CC2)noc1C` (stereo unspecified) reads 618 s; that for `COc1ccccc1CNC(=O)CN1CCN(Cc2ccccc2F)C1=O`, 715 s; that for `O=C(c1ccc(Cl)cc1)N(CC1CCOC1)C1CC1` (stereo unspecified), 791 s.

As for `O=C(O)CCc1conc1-c1cccc(F)c1`, the RP-LC retention time is 729 s. `CN(C(=O)Cn1cncc(C(=O)NC2CCCC2)c1=O)c1ccccc1` registered an RP-LC retention time of 767 s. The result for `CC(=O)NCC(=O)N1c2ccccc2CC1c1nc(C(C)C)no1` (stereo unspecified) reads 724 s; that for `Cc1cccc(-c2nnc(-c3nc(NCCc4c(C)noc4C)c4ccccc4n3)o2)c1`, 956 s; that for `CCOC(=O)c1ccc(NC(=O)c2cccc([N+](=O)[O-])c2)cc1`, 890 s. As for `O=C1CCC2(CNC(=O)NCCc3ccccc3)CCCC=C2N1` (stereo unspecified), the figure is 623 s.

For the molecule `CC1CCN(C(=O)CS(=O)Cc2cnn(-c3ccccc3)c2-n2cccc2)CC1` (stereo unspecified), the RP-LC retention time turned out to be 828 s. Turning to `Cc1cccc(-c2nnc(Cc3nc(C(C)(C)C)no3)o2)c1`, the RP-LC retention time is 1000 s. As for `Cc1ccc(S(=O)(=O)n2nc(OC(=O)c3ccc(Cl)cc3Cl)cc2N)cc1`, the figure is 1030 s; as for `Cc1cc(NC(=O)c2c[nH]c3ncccc23)ccc1F`, 739 s; as for `Cc1cccnc1NC(=O)C1c2ccccc2C(=O)N(Cc2ccccc2)C12CCCC2` (stereo unspecified), 782 s. As for `CC(C)NC(=O)Cn1ccn2nc(-c3ccccc3)c(CO)c2c1=O`, the figure is 666 s.

`CCN(CC)C(=O)[C@@H]1[C@H](c2cc(OC)c(OC)c(OC)c2)c2cc3c(cc2[C@H](O)[C@H]1CO)OCO3` gave an RP-LC retention time of 679 s. The result for `O=S(c1cc(Cl)cc(Cl)c1O)c1cc(Cl)cc(Cl)c1O` reads 1160 s.

Consider `COc1ccc(-c2noc(Cc3nc(-c4ccc(Br)cc4)cs3)n2)cc1OC`, for which the RP-LC retention time came to 1200 s. As for `N#Cc1cccc(S(=O)(=O)N2CCc3nc(-c4ccc(Cl)cc4)ncc3C2)c1`, the figure is 1130 s. As for `CCN1C(=O)C(C)(C(=O)Nc2ccc(OC)cc2)Oc2cccnc21` (stereo unspecified), the figure is 827 s; as for `CCC1CN2C=NC(N3CCN(C(=O)Nc4cccc(SC)c4)CC3)=CC2=N1` (stereo unspecified), 663 s. Consider `CN(C)C(=O)N1CCc2nn(Cc3ccccc3)c(=O)n2CC1`, for which the RP-LC retention time was 649 s. Consider `Cc1ccc(-c2ccnc(SCC(=O)Nc3ccccc3C(F)(F)F)n2)cc1C`, for which the RP-LC retention time amounted to 1120 s.

`CCCCCn1c(=O)c2ccccc2n(Cc2nc(-c3ccccc3)no2)c1=O` came in with an RP-LC retention time of 1240 s. The result for `COc1ccc(NC(=O)NCC2CCOCC2)c(C)c1` reads 657 s; that for `CCc1cc(C2CCCN2C(=O)Nc2ccc(OC)c(OC)c2)on1` (stereo unspecified), 724 s; that for `COC[C@@H]1CN(Cc2ccc3[nH]ccc3c2)C[C@H]1c1ccncc1`, 581 s. As for `CCCNC(=O)c1cc(-c2ccncc2)cn1Cc1ccc(C)cc1`, the figure is 696 s; as for `CCn1ccc2ccc(CCC(=O)N3CCN(c4ccc(F)cc4)CC3)cc21`, 1030 s. As for `COc1ccc(CC(=O)NCCc2nc3cccnc3n2C)cc1`, the figure is 581 s; as for `Cc1ccc(CN2N=C(C(=O)N3CCOCC3)S(=O)(=O)c3ccc(C)cc32)cc1`, 907 s; as for `Cc1cc(C)cc(C(=O)N2CCCC2COc2ccc(C(=O)NC(C)C)cc2)c1` (stereo unspecified), 922 s. `COc1ccc(N2CCN(C(=O)Cn3ccc4ccc(-c5nnc(C)o5)cc43)CC2)cc1` yielded an RP-LC retention time of 753 s.

`COc1cc2c(cc1/C=C/[N+](=O)[O-])OC(C)C2` (stereo unspecified) had an RP-LC retention time of 908 s. As for `Cn1nc(-c2ccccc2F)c2cc(C(=O)N3CCN(c4ccccn4)CC3)sc21`, the figure is 654 s.
